This is an account of results in ChEMBL document CHEMBL1201862, “PubChem BioAssay data set” (2004).

Experiment [1] is described as follows: viability inhibitors of stage V gametocytes – luminescence, dose response (AID 1117278).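 Further: gametocytes exposed to compound for 24 hours.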 Format: functional, cell-based.
Experiment [2] in a line: viability loss in human Jurkat cells – cell-based, luminescence, cytotoxicity control for P. falciparum gametocyte viability project, dose response (AID 1117277).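 Further: potency reflects loss of cellular ATP meaning fewer viable cells.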 Format: functional.
In a further experiment the target is T1, Caspase-6 (Homo sapiens, UniProt P55212).
T1 sequence (P55212 whole entry): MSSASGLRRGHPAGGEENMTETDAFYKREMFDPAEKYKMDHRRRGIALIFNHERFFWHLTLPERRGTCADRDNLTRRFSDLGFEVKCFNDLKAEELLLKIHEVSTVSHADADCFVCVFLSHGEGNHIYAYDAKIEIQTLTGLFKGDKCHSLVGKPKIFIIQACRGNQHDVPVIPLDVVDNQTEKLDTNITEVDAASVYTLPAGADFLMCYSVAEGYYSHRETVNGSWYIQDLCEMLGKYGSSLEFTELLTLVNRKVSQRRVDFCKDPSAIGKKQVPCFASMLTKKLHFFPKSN
Put plainly: inhibition of CASP6 peptide cleavage – biochemical, VEID-R110 fluorescence, cherry-pick, dose response (AID 720632).

Experiment [3] concerns the target T2, Sentrin-specific protease 8 (Homo sapiens, UniProt Q96LD8).
T2 sequence (Q96LD8 whole entry): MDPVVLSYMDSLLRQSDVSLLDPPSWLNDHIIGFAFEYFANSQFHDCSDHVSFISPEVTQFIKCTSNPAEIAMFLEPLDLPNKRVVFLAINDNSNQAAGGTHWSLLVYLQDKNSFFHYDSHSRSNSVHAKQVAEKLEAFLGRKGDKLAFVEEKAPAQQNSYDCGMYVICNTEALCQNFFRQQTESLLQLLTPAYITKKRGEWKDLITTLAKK
Format: functional.

A further experiment concerns the target Prothrombin (Homo sapiens, UniProt P00734). Put plainly: Thrombin 1536 HTS Dose Response Confirmation. [Related pubchem assays: 1046 (Thrombin 1536 HTS; hits were confirmed in this assay)]. Format: functional.
The next experiment addresses Paired box protein Pax-8 (Homo sapiens, UniProt Q06710). The experiment is described as follows: PAX8 transcriptional activity inhibition in RMG-I – RMG-I cells, luciferase, cherry-pick, dose response (AID 687027).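 Further: luciferase reporter driven by Pax8 target thyroperoxidase promoter measured by SteadyGlo luminescence.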 Format: functional, cell-based.
Experiment [4] can be described thus: OVCAR8 cell viability loss – plate reader, dry powder samples, PAX8 project, dose response (AID 743197). Format: functional, cell-based. The following applies: OVCAR-8.
Experiment [5] in a line: OVCAR-3 cell viability loss – plate reader, dry powder samples, PAX8 inhibitor project, dose response (AID 743044). Format: functional, cell-based.
The target in experiment [6] is T3, Apoptotic protease-activating factor 1 (Homo sapiens, UniProt O14727).
T3 sequence (O14727 whole entry): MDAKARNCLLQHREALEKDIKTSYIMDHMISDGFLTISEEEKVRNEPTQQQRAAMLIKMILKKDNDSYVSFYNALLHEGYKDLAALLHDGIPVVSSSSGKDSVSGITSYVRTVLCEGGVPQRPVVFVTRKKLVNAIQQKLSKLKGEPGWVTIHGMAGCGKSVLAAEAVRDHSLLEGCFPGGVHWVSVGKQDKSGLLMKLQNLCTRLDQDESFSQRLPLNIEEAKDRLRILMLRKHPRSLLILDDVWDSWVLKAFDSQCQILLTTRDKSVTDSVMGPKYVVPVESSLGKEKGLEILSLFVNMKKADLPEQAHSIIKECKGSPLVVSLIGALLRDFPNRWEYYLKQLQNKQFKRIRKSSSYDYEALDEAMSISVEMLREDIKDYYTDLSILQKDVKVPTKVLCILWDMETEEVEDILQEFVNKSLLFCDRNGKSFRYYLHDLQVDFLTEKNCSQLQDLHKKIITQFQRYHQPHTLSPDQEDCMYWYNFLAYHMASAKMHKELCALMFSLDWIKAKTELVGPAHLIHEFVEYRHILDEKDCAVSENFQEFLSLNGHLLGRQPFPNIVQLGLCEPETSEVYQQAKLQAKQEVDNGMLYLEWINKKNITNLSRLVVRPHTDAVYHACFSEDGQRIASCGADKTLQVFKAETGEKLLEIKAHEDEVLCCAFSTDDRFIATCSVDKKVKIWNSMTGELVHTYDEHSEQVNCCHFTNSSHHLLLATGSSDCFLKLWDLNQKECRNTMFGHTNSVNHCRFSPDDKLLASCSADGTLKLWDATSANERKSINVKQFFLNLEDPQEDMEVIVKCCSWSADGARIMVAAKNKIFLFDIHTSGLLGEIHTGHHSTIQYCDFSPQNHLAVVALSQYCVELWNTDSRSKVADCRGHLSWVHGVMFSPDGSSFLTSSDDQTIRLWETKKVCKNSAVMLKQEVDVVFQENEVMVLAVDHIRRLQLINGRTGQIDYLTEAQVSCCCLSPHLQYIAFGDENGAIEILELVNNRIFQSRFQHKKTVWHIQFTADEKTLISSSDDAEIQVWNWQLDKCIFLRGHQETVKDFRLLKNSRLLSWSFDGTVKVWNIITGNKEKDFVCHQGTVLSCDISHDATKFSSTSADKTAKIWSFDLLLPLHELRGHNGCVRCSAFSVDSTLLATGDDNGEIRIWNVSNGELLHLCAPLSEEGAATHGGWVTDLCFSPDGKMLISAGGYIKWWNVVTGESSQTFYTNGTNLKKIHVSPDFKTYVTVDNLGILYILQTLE
Format: functional.

The nature of experiment [7]: A549 cell cytotoxicity, dose response, cytotoxicity control, plate reader, cherry-pick, antagonist series (AID 743412). Format: functional, cell-based.
The target in experiment [8] is T2, Sentrin-specific protease 8. Format: functional. The source holds these as a separate data set.
Experiment [9] is described as follows: toxicity toward HepG2 liver cells – cell-based, plate reader, cherry-pick, antagonist series, cytotoxicity control, dose response (AID 743416). Format: functional.
Experiment [10] can be described thus: viability loss in HEK293 cells – cell-based, plate reader, cherry-picked samples, cytotoxicity control, dose response (AID 743446). Format: functional.
For another experiment, the system named is INS1. The experiment is described as follows: INS-1E survival protection against cytokine death – cell-based, luminescence, retest, dose response (AID 449756).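 Further: cell death triggered by IL-1 beta plus TNF-alpha plus IFN-gamma mixture; protective hits raise ATP signal compared with cytokine alone wells.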 Format: functional. The note with it: Rattus norvegicus.
A short description of experiment [11]: HPDE-C7 pancreatic duct cell viability loss – fluorescence, HTS (AID 430). The following applies: Homo sapiens. Format: functional, cell-based.
A short description of experiment [12]: viability loss of HPDE-C7K cells – cell-based, fluorescence, HTS, primary screen (AID 431). The following applies: Homo sapiens. Format: functional.

The source made the active and inactive calls.

Paired box protein Pax-8, sequence (Q06710 whole entry): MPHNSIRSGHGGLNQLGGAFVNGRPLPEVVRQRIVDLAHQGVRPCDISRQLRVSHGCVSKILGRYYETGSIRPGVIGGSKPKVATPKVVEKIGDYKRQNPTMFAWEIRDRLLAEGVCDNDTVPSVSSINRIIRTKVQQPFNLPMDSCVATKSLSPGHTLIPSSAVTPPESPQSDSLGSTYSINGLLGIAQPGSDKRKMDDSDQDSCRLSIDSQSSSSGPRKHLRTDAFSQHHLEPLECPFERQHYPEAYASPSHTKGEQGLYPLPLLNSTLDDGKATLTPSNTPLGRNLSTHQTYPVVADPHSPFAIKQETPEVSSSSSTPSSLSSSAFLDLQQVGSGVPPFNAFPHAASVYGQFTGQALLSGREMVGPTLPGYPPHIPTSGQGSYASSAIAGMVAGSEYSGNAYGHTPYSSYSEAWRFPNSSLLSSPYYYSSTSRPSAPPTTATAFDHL

One may read the IC50 as the point on the concentration scale where inhibition reaches its midpoint. As to `COc1ccc(NC(=O)CS(=O)(=O)c2ccccc2)cc1`, the values for the IC50 in [1] and in experiment [2] were > 109 µM (inactive) and > 83.2 µM (inactive), respectively.
A word on the AC50: it is the concentration giving half of the maximal activity seen. As to `CCOc1cc(N2CCOCC2)c(OCC)cc1NS(=O)(=O)c1cc(NC(C)=O)ccc1OC`, the AC50 on Caspase-6 was 34.5 µM (active).
Consider `CN(C)c1ccc(NC(=O)c2ccc(Cn3cc([N+](=O)[O-])cn3)cc2)cc1`, for which the half-maximal inhibitory concentration (IC50) in experiment [3] was 23.2 µM (active); at Prothrombin, > 50 µM (not active).
Regarding `CC(C)CNC(=O)CCCc1ccccc1`, the IC50 is > 109 µM (inactive) in experiment [1] and > 83.4 µM (inactive) in [2].
As for `Cc1c(C(=O)N2CCC(C(N)=O)CC2)sc(N)c1C#N`, the IC50 against Prothrombin is recorded as > 50 µM (not active).
In the case of `Cc1ccc(S(=O)(=O)Nc2ccc3c(c2)C(=O)N([C@H](C)CO)C[C@@H](C)[C@H](CN(C)C(=O)Nc2cccc4ccccc24)OCCCC[C@@H](C)O3)cc1`, the AC50 at Paired box protein Pax-8 was 5.78 µM (active); in experiment [4] it was > 70 µM (inactive); in [5], 42.1 µM (active).
In the case of `CCCCOc1cc(NCc2ccccc2)c2ncn(C(C)C)c2c1`, the IC50 in experiment [6] is 13.4 µM (active); in experiment [3], 12.9 µM (active); in experiment [8], 12.2 µM (active). The AC50 in experiment [7] was 17.3 µM (active); in [9], 20.3 µM (active); in [10], > 52 µM (inactive); in the experiment with INS1, 8.11 µM (active).
For orientation: EC50 means the concentration needed to bring the measured effect to its halfway point. A higher EC50 goes with a less potent agent. With `CCn1cc(C(=O)N2CCc3ccccc32)c(=O)c2cc(S(=O)(=O)N3CCOCC3)ccc21`, the EC50 in experiment [11] and in [12] was > 20 µM (not active) throughout.
